Test results: patent US10856562B2, “Flavor composition and edible compositions containing same” (MARS, INCORPORATED, priority 2013, dated 2020)
Square brackets hold non-standard residues; d marks the D form. Ends that are not written are not given here. pGlu = O=C1CC[C@@H](C(=O)O)N1

Tested on: panelists
Experiment: Consensus attribute scores of flavor enhancers in Uncle Ben's Garden Vegetable Ready rice
Format: in vivo, human
Parameters: key to Cooked White Rice / Vegetable Oil / Vegetable Complex / Cooked Green Vegetable / Cooked Corn / Sweet (BASIC TASTES) / Salt (BASIC TASTES) / Mouthdrying (Texture) / Residual Mouthcoating (Texture) / Total Aromatics / Bitter (BASIC TASTES): 15-point scale, 0 = none, 15 = very strong
Conditions: for Bitter (BASIC TASTES) / Black Pepper / Cooked Corn / Cooked Green Vegetable / Cooked White Rice / Dehydrated onion/garlic / HVP/Brothy / Mineral/Flint / Mouthdrying (Texture) / Residual Mouthcoating (Texture) / Salt (BASIC TASTES) / Salt Burn (Chemical Feeling Factors) / Sweet (BASIC TASTES) / Total Aromatics / Umami (Chemical Feeling Factors) / Vegetable Complex / Vegetable Oil: rice
Experimental: Descriptive attributes (e.g., taste, flavor and chemical feeling factors) of three use levels of pGlu-Cys (FE-35), pGlu-Cys-Gly (FE-36), pGlu-Cys-Cys (FE-37), pGlu-Cys-Val (FE-38) and pGlu-Val-Cys (UE-30) flavor composition peptides were determined. The three use levels were as follows: 1.0 ppb, 10.0 ppb and 100.0 ppb.
Data was collected for the attributes of the product in-mouth for the use levels according to the following protocol: • The samples were analyzed for flavor by six to nine members of a panel, trained and experienced in flavor evaluation using the Spectrum™ method. Samples were evaluated across multiple panel sessions. • The strength of each attribute was rated on a 15-point scale, where 0=none and 15=very strong. • This scale incorporates the ability to use tenths of a point and therefore has the potential of 150 scale differentiations. • The scale may be expanded beyond 15 points to include extreme ratings if necessary.
Preparation of Rice Samples • Each flavor enhancer was tested in Uncle Ben's Garden Vegetable Ready rice matrix at 3 different concentrations: 1 ppb, 10 ppb and 100 ppb. A total of 15 points with flavor enhancers were prepared for sensory evaluation. Additionally, 15 control samples were prepared. Each point had 2 samples (test and control) and was made from one pouch of rice. • Directions to prepare the solutions: • The 15 ready- to eat pouches were microwaved according to the procedure found on the back of the pouch: (1) squeeze pouch to separate rice, (2) tear two inches to vent, (3) heat on High for 90 seconds and (4) remove from microwave using COOL TOUCH area on untorn side. • From each pouch 124.75 g (test sample) and 99.8 g (control) were weighed out. The test sample had the flavor enhancer and/or salt. The control sample only had salt added. • The flavor enhancer and/or salt (non-iodized salt) were weighed in a soufflé cup. The weighed amount of flavor enhancer and/or salt was added to the sub-sampled rice. The rice was stirred and mixed to evenly distribute the salt added. • Some rice was placed back into the soufflé cup, sealed, and the cup was shook to get the flavor enhancer and/or salt that may have been stuck on the walls of the soufflé cup. After shaking the soufflé cup, the rice was added back to the original sub-sampled rice and stirred/mixed again. • Each sample (test and control) was microwaved for another 30 seconds (or until warm) to ensure that the salts/compounds were going completely into the solutions. • All samples (test and control) were tasted at the same temperature. • Each test sample had 0.2% NaCl added and flavor enhancers at the specified concentrations.
A summary of the concentrations of NaCl and flavor composition peptides in the rice samples is described in table 23. The first value of each cell represents a single sample amount of an ingredient in milligrams, and the second number in parenthesis is a doubling of the ingredient (in grams) for use in a doubled size sample.
The panelists evaluated each sample for the attributes described by table 25.

[pGlu]-Cys-Val [FE-38]
Cooked green vegetable in rice compared to the Control (1 & 100 ppb): low level of cooked green vegetable | Bitter in rice (all samples (1, 10, 100 ppb)): bitter | Mineral/flint note in rice, not seen in the Control (all samples (1, 10, 100 ppb)): low mineral/flint note | Mouthdrying in rice, not seen in the Control (all samples (1, 10, 100 ppb)): have mouthdrying | Salt burn feeling factor in rice compared to the Control (all samples (1, 10, 100 ppb)): higher | Umami feeling factor in rice compared to the Control (all samples (1, 10, 100 ppb)): higher | Bitter (BASIC TASTES) (1.0 ppb (5 ppm)): 0.8 | Black Pepper (1.0 ppb (5 ppm)): 1.0 | Cooked Corn (1.0 ppb (5 ppm)): 0.8 | Cooked Green Vegetable (1.0 ppb (5 ppm)): 0.8 | Cooked White Rice (1.0 ppb (5 ppm)): 3.0 | Dehydrated onion/garlic (1.0 ppb (5 ppm)): 1.0 | HVP/Brothy (1.0 ppb (5 ppm)): 1.0 | Mineral/Flint (1.0 ppb (5 ppm)): 1.0 | Mouthdrying (Texture) (1.0 ppb (5 ppm)): 1.8 | Residual Mouthcoating (Texture) (1.0 ppb (5 ppm)): 1.0 | Salt (BASIC TASTES) (1.0 ppb (5 ppm)): 13.8 | Salt Burn (Chemical Feeling Factors) (1.0 ppb (5 ppm)): 1.0 | Sweet (BASIC TASTES) (1.0 ppb (5 ppm)): 3.5 | Total Aromatics (1.0 ppb (5 ppm)): 6.3 | Umami (Chemical Feeling Factors) (1.0 ppb (5 ppm)): 2.0 | Vegetable Complex (1.0 ppb (5 ppm)): 1.5 | Vegetable Oil (1.0 ppb (5 ppm)): 0.8 | Bitter (BASIC TASTES) (10.0 ppb (50 ppm)): 1.2 | Black Pepper (10.0 ppb (50 ppm)): 1.0 | Cooked Corn (10.0 ppb (50 ppm)): 1.0 | Cooked Green Vegetable (10.0 ppb (50 ppm)): 0.0 | Cooked White Rice (10.0 ppb (50 ppm)): 3.0 | Dehydrated onion/garlic (10.0 ppb (50 ppm)): 0.8 | HVP/Brothy (10.0 ppb (50 ppm)): 1.0 | Mineral/Flint (10.0 ppb (50 ppm)): 1.5 | Mouthdrying (Texture) (10.0 ppb (50 ppm)): 2.0 | Residual Mouthcoating (Texture) (10.0 ppb (50 ppm)): 1.0 | Salt (BASIC TASTES) (10.0 ppb (50 ppm)): 13.0 | Salt Burn (Chemical Feeling Factors) (10.0 ppb (50 ppm)): 1.0 | Sweet (BASIC TASTES) (10.0 ppb (50 ppm)): 3.3 | Total Aromatics (10.0 ppb (50 ppm)): 6.0 | Umami (Chemical Feeling Factors) (10.0 ppb (50 ppm)): 2.0 | Vegetable Complex (10.0 ppb (50 ppm)): 1.0 | Vegetable Oil (10.0 ppb (50 ppm)): 1.0 | Bitter (BASIC TASTES) (100 ppb (50 ppm)): 0.8 | Black Pepper (100 ppb (50 ppm)): 1.0 | Cooked Corn (100 ppb (50 ppm)): 0.8 | Cooked Green Vegetable (100 ppb (50 ppm)): 0.8 | Cooked White Rice (100 ppb (50 ppm)): 3.0 | Dehydrated onion/garlic (100 ppb (50 ppm)): 1.0 | HVP/Brothy (100 ppb (50 ppm)): 1.5 | Mineral/Flint (100 ppb (50 ppm)): 1.0 | Mouthdrying (Texture) (100 ppb (50 ppm)): 2.5 | Residual Mouthcoating (Texture) (100 ppb (50 ppm)): 1.0 | Salt (BASIC TASTES) (100 ppb (50 ppm)): 13.5 | Salt Burn (Chemical Feeling Factors) (100 ppb (50 ppm)): 1.3 | Sweet (BASIC TASTES) (100 ppb (50 ppm)): 3.5 | Total Aromatics (100 ppb (50 ppm)): 6.5 | Umami (Chemical Feeling Factors) (100 ppb (50 ppm)): 3.0 | Vegetable Complex (100 ppb (50 ppm)): 1.5 | Vegetable Oil (100 ppb (50 ppm)): 0.8

[pGlu]-Val-Cys [UE-30]
Mouthdrying in rice (10 and 100 ppb): low mouthdrying | Cooked green vegetable in rice compared to the Control (all samples (1, 10, 100 ppb)): low level of cooked green vegetable | Salt burn feeling factor in rice compared to the Control (all samples (1, 10, 100 ppb)): higher | Salt in rice compared to the Control (all samples (1, 10, 100 ppb)): saltier than the Control | Umami feeling factor in rice compared to the Control (all samples (1, 10, 100 ppb)): higher | Black Pepper (1.0 ppb (5 ppm)): 1.3 | Cooked Corn (1.0 ppb (5 ppm)): 0.8 | Cooked Green Vegetable (1.0 ppb (5 ppm)): 0.8 | Cooked White Rice (1.0 ppb (5 ppm)): 3.0 | Dehydrated onion/garlic (1.0 ppb (5 ppm)): 1.0 | HVP/Brothy (1.0 ppb (5 ppm)): 1.5 | Mineral/Flint (1.0 ppb (5 ppm)): 0.0 | Mouthdrying (Texture) (1.0 ppb (5 ppm)): 0.0 | Residual Mouthcoating (Texture) (1.0 ppb (5 ppm)): 1.0 | Salt (BASIC TASTES) (1.0 ppb (5 ppm)): 15.0 | Salt Burn (Chemical Feeling Factors) (1.0 ppb (5 ppm)): 1.0 | Sweet (BASIC TASTES) (1.0 ppb (5 ppm)): 3.0 | Total Aromatics (1.0 ppb (5 ppm)): 6.8 | Umami (Chemical Feeling Factors) (1.0 ppb (5 ppm)): 1.5 | Vegetable Complex (1.0 ppb (5 ppm)): 1.5 | Vegetable Oil (1.0 ppb (5 ppm)): 0.8 | Black Pepper (10.0 ppb (50 ppm)): 1.5 | Cooked Corn (10.0 ppb (50 ppm)): 1.0 | Cooked Green Vegetable (10.0 ppb (50 ppm)): 1.0 | Cooked White Rice (10.0 ppb (50 ppm)): 3.0 | Dehydrated onion/garlic (10.0 ppb (50 ppm)): 1.0 | HVP/Brothy (10.0 ppb (50 ppm)): 1.5 | Mineral/Flint (10.0 ppb (50 ppm)): 0.5 | Mouthdrying (Texture) (10.0 ppb (50 ppm)): 1.8 | Residual Mouthcoating (Texture) (10.0 ppb (50 ppm)): 1.0 | Salt (BASIC TASTES) (10.0 ppb (50 ppm)): 15.0 | Salt Burn (Chemical Feeling Factors) (10.0 ppb (50 ppm)): 0.8 | Sweet (BASIC TASTES) (10.0 ppb (50 ppm)): 3.5 | Total Aromatics (10.0 ppb (50 ppm)): 6.8 | Umami (Chemical Feeling Factors) (10.0 ppb (50 ppm)): 2.0 | Vegetable Complex (10.0 ppb (50 ppm)): 1.8 | Vegetable Oil (10.0 ppb (50 ppm)): 0.8 | Black Pepper (100 ppb (50 ppm)): 1.5 | Cooked Corn (100 ppb (50 ppm)): 1.0 | Cooked Green Vegetable (100 ppb (50 ppm)): 1.0 | Cooked White Rice (100 ppb (50 ppm)): 3.0 | Dehydrated onion/garlic (100 ppb (50 ppm)): 1.0 | HVP/Brothy (100 ppb (50 ppm)): 1.5 | Mineral/Flint (100 ppb (50 ppm)): 0.5 | Mouthdrying (Texture) (100 ppb (50 ppm)): 1.5 | Residual Mouthcoating (Texture) (100 ppb (50 ppm)): 1.5 | Salt (BASIC TASTES) (100 ppb (50 ppm)): 16.0 | Salt Burn (Chemical Feeling Factors) (100 ppb (50 ppm)): 1.3 | Sweet (BASIC TASTES) (100 ppb (50 ppm)): 3.5 | Total Aromatics (100 ppb (50 ppm)): 6.8 | Umami (Chemical Feeling Factors) (100 ppb (50 ppm)): 3.0 | Vegetable Complex (100 ppb (50 ppm)): 1.8 | Vegetable Oil (100 ppb (50 ppm)): 0.5
